# Assay results as given in patent US9751919B2, “Antimicrobial compositions comprising a hyaluronic acid binding peptide and a β-lactam antibiotic” (priority 2012, dated 2017).
# Where “and” joins values, the source holds several entries; their conditions need not be identical. Equal entries are not always repeated. Where two headings read alike, the source gives them in different places. Marks after values point to notes of the source that are not given here.
# Experiments:
# VISA = assay: MIC (CLSI broth dilution), agent alone; format: cell-based, Staphylococcus aureus; design: unit: µg/mL
# VRSA = assay: MIC (CLSI broth dilution), agent alone; format: cell-based, Staphylococcus aureus; design: unit not given beside the values
# K. pneumoniae = assay: Checkerboard assay (FIC index); format: cell-based, Klebsiella pneumoniae; conditions: antibiotic combined with PEP35
# Method: (§1) The checkerboard assays were carried out as described by Eliopoulos and Moellering (Chapter 9) in Antibiotic in Laboratory Medicine, Lorian Ed. 1996 as well as Bonapace et al. Diagnostic Microbiology and Infectious Diseases 2002; 44:363-366 and Bonapace et al. Diagnostic Microbiology and Infectious Diseases 2000; 38:43-50. In brief, checkerboard assays were performed in 96 well microtitre trays using an 8-by-8 well configuration. […] 96-well custom designed microtitre plates contained 100 ul/well of cation adjusted Mueller-Hinton broth (eg. for Enterobacteriaceae) with or without lysed horse blood (2-5% V/V) [eg. for S. pneumoniae] and were inoculated to achieve a final concentration of approximately 5×10^5 CFU/ml and incubated in ambient air for 24 hours prior to reading. Colony counts were performed periodically to confirm inocula. Quality control was performed every two weeks using a variety of ATCC QC organisms including; S. pneumoniae 49619, S. aureus 29213, E. faecalis 29212, E. coli 25922 and P. aeruginosa 27853. For all antimicrobials as well as PEP35, CLSI criteria was used.
# (§2) The fractional inhibitory concentration index (FIC index) was used to interpret synergy, antagonism or additivity/indifference. FIC index=FIC of drug A+FIC of drug B where:
# (§3) The FIC of drug A and drug B is calculated as follows, FIC drug A=MIC of drug A in combination/MIC of drug A alone and FIC of drug B=MIC of drug B in combination/MIC of drug B alone. Synergy is defined as FIC index ≦0.5, additivity/indifference FIC >0.5-4 and antagonism FIC index >4.
# (§4) Antimicrobials used included PEP35, cefazolin, ceftriaxone, vancomycin, linezolid, tigecycline and daptomycin versus Gram-positive cocci and PEP35, gentamicin, levofloxacin, piperacillin/tazobactam, meropenem and colistin (Polymyxin E) versus Gram-negative bacilli. These agents were obtained as laboratory grade powders from their respective manufacturers. Stock solutions were prepared and dilutions made as described by the Clinical Laboratory Standards Institute (2005 CLSI).
# (§5) Organisms included Gram-positive cocci (2 strains of each): Methicillin-susceptible Staphylococcus aureus (MSSA), community-associated (CA) and healthcare-associated (HA) methicillin-resistant Staphylococcus aureus (MRSA), vancomycin-intermediate Staphylococcus aureus (VISA), vancomycin-resistant Staphylococcus aureus (VRSA), methicillin-resistant Staphylococcus epidermidis (MRSE), Streptococcus pyogenes, Streptococcus agalactiae, Streptococcus pneumoniae, Enterococcus faecalis, Enterococcus faecium and vancomycin-resistant enterococcus (VRE). Gram-negative bacilli tested (2 strains of each) included: E. coli, Pseudomonas aeruginosa, Klebsiella pneumoniae, K. oxytoca, Enterobacter cloacae, P. mirabilis and Stenotrophomonas maltophilia. MIC testing, following two subcultures from frozen stock were determined by the CLSI 2005 approved broth microdilution method.
# P. mirabilis = assay: Checkerboard assay (FIC index); format: cell-based, Proteus mirabilis; conditions: antibiotic combined with PEP35
# Method: as §1, §2, §3, §4, §5
# E. coli = assay: MIC (CLSI broth dilution), agent alone; format: cell-based, Escherichia coli; conditions: for MIC: agent alone
# Procedure, shortened: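 E. coli strain 69717 was tested by CLSI 2005 broth macrodilution in cation-adjusted Mueller-Hinton broth with doubling dilutions. The inoculum was about 5×10^5 CFU/ml, incubated 24 h in ambient air. MIC is the lowest concentration preventing visible growth.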
# S. pneumoniae = assay: Checkerboard assay (FIC index); format: cell-based, Streptococcus pneumoniae; conditions: antibiotic combined with PEP35;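 further: each agent diluted from 0.03 to 4 times its MIC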
# Method: as §1, §2, §3, §4, §5
# S. pyogenes = assay: Checkerboard assay (FIC index); format: cell-based, Streptococcus pyogenes; conditions: antibiotic combined with PEP35
# Method: as §1, §2, §3, §4, §5
# S. agalactiae = assay: Checkerboard assay (FIC index); format: cell-based, Streptococcus agalactiae; conditions: antibiotic combined with PEP35
# Method: as §1, §2, §3, §4, §5
# VRE = assay: Checkerboard assay (FIC index); format: cell-based, Enterococcus faecium; conditions: antibiotic combined with PEP35
# Method: as §1, §2, §3, §4, §5
# E. Faecium = assay: Checkerboard assay (FIC index); format: cell-based, Enterococcus faecium; conditions: antibiotic combined with PEP35
# Method: as §1, §2, §3, §4, §5
# E. faecalis = assay: Checkerboard assay (FIC index); format: cell-based, Enterococcus faecalis; conditions: antibiotic combined with PEP35
# Method: as §1, §2, §3, §4, §5
# [1] = S. pneumoniae-Pen I 72302 (MHB)
# [2] = S. pneumoniae-Pen I 78663 (MHB)
# [3] = S. pneumoniae-Pen R 76065 (MHB)
# [4] = S. pneumoniae-Pen R 78519 (MHB)
# [5] = S. pneumoniae-Pen S 70400 (MHB)
# [6] = S. pneumoniae-Pen S 71263 (MHB)
Molecule,"MIC (VISA; VISA 92, in µg/mL)","MIC (VISA; VISA 95, in µg/mL)",MIC (VISA; VISA 96),"MIC (VRSA; VRSA 105, in µg/mL)",MIC (VRSA; VRSA 106),Avg ΣFIC (range) (K. pneumoniae; K. pneumoniae 70508),Avg ΣFIC (range) (K. pneumoniae; K. pneumoniae 77081),Avg ΣFIC (range) (P. mirabilis; P. mirabilis 80267),Avg ΣFIC (range) (P. mirabilis; P. mirabilis 81569),"MIC (E. coli; E. coli 69716, in µg/mL)","MIC (E. coli; E. coli 70752, in µg/mL)",Avg ΣFIC (range) (S. pneumoniae; [1]),Avg ΣFIC (range) (S. pneumoniae; [2]),Avg ΣFIC (range) (S. pneumoniae; [3]),Avg ΣFIC (range) (S. pneumoniae; [4]),Avg ΣFIC (range) (S. pneumoniae; [5]),Avg ΣFIC (range) (S. pneumoniae; [6]),Avg ΣFIC (range) (S. pyogenes; S. pyogenes 77765 (MHB)),Avg ΣFIC (range) (S. pyogenes; S. pyogenes 79531 (MHB)),Avg ΣFIC (range) (S. agalactiae; S. agalactiae 80870 (MHB)),further results
C[C@@H](O)[C@H]1C(=O)N2C(C(=O)O)=C(S[C@@H]3CN[C@H](C(=O)N(C)C)C3)[C@H](C)[C@H]12 [Meropenem],16,16,8 and 8/8,32 and 16,16 and 16/16,1.19 (1.03-1.5),1.21 (1.03-1.5),>1*,>1*,0.03,0.03,,,,,,,,,,
CN[C@H](CC(C)C)C(=O)N[C@H]1C(=O)N[C@@H](CC(N)=O)C(=O)N[C@H]2C(=O)N[C@H]3C(=O)N[C@H](C(=O)N[C@H](C(=O)O)c4cc(O)cc(O)c4-c4cc3ccc4O)[C@H](O)c3ccc(c(Cl)c3)Oc3cc2cc(c3O[C@@H]2O[C@H](CO)[C@@H](O)[C@H](O)[C@H]2O[C@H]2C[C@](C)(N)[C@H](O)[C@H](C)O2)Oc2ccc(cc2Cl)[C@H]1O [Vancomycin],,,4/4,,512/512/512,,,,,,,1.26 (1.06-1.5),1.1 (1.0-1.25),0.86 (0.53-1.25),1.2 (1.015-1.5),0.91 (0.56-1.25),1.05 (0.75-1.25),1.09 (1.0-1.25),1.27 (1.015-2.5),1.05 (0.75-1.25),"Avg ΣFIC (range) (S. agalactiae; S. agalactiae 81262 (MHB)): 1.1 (1.0-1.25); MIC (VISA; VISA 92): 4/4; MIC (VISA; VISA 95): 2 and 4; Avg ΣFIC (range) (VRE; VRE 70769): 0.92 (0.506-1.25); Avg ΣFIC (range) (VRE; VRE 77872): 1.19 (1.03-1.5); Avg ΣFIC (range) (E. Faecium; E. Faecium 78024): 1.19 (1.03-1.5); Avg ΣFIC (range) (E. Faecium; E. Faecium 78352): 1.59 (1.06-2.5); MIC (VRSA; VRSA 105): 512/512/512; MIC (VRSA; VRSA 105, listed as VAN, in µg/mL): 512; MIC (VRSA; VRSA 106, listed as VAN, in µg/mL): 512; Avg ΣFIC (range) (E. faecalis; E. faecalis 70468): 1.1 (1-1.25); Avg ΣFIC (range) (E. faecalis; E. faecalis 78145): 1.19 (1.03-15)"
Cc1nnc(SCC2=C(C(=O)O)N3C(=O)[C@@H](NC(=O)Cn4cnnn4)[C@H]3SC2)s1 [Cefazolin],128,128 and 64,32/32,128 and 256,256/256,,,,,2,128,1.1 (1.0-1.25),1.1 (1.0-1.25),0.70 (0.53-1.06),0.97 (0.75-1.12),0.68 (0.515-1.06),0.99 (0.62-1.25),1.04 (0.75-1.25),1.19 (1.03-1.5),0.92 (0.56-1.25),"Avg ΣFIC (range) (S. agalactiae; S. agalactiae 81262 (MHB)): 1.10 (1-1.25); MIC (VISA; VISA 92): 128/128; MIC (VISA; VISA 95, listed as CEFAZOLIN, in µg/mL): 128; MIC (VISA; VISA 96, in µg/mL): 64 and 32; Avg ΣFIC (range) (VRE; VRE 70769): >1*; Avg ΣFIC (range) (VRE; VRE 77872): >1*; Avg ΣFIC (range) (E. Faecium; E. Faecium 78024): 1.16 (1.015-1.5); Avg ΣFIC (range) (E. Faecium; E. Faecium 78352): 1.10 (1-1.25); MIC (VRSA; VRSA 105): 128/128/128/; MIC (VRSA; VRSA 106, in µg/mL): 256 and 128; Avg ΣFIC (range) (E. faecalis; E. faecalis 70468): 0.94 (0.56-1.25); Avg ΣFIC (range) (E. faecalis; E. faecalis 78145): 0.93 (0.62-1.06); Cefazolin (MIC) (E. coli; E. coli, antibiotic alone, two values in cell): 2/2; MIC (E. coli; Escherichia coli, E. coli control, read-out: MIC): 2 µg/mL"
piperacillin/tazobactam,64,64,,64,,0.93 (0.62-1.12),1.05 (0.75-1.25),>0.5*,>0.5*,2,8,,,,,,,,,,"MIC (VISA; VISA 96, in µg/mL): 64; MIC (VRSA; VRSA 106, in µg/mL): 64; MIC (E. coli; E. coli 69716, listed as Piperacillin-Tazobactam, in µg/mL): 4 and 2; MIC (E. coli; E. coli 70752): 4/4"
